Values quoted from earlier work in patent EP0860164A1, “Cosmetic and dermatological composition for sun protection containing triazine derivates and butylenglycol diesters” (Beiersdorf Aktiengesellschaft, priority 1997, dated 1998).

Details: maximum amount of the filter that known solvents (Bekannte Lösungsmittel) can dissolve

Structure (SMILES): CCCCC(CC)COC(=O)c1ccc(Nc2nc(Nc3ccc(C(=O)OCC(CC)CCCC)cc3)nc(Nc3ccc(C(=O)OCC(CC)CCCC)cc3)n2)cc1 (stereo not shown) [UVINUL® T 150, 4,4',4''-(1,3,5-Triazin-2,4,6-triyltriimino)-tris-benzoesäure-tris(2-ethylhexylester)]
- Löslichkeit in Lipiden: ≤ 15 Gew.-%
